Source: publication PMC10182956 (Archives of Toxicology, 2023)
“Also recorded” adds a separate entry of the source. Read-outs that look alike come from different tables or passages of the source.

Legend:
[1] = tested on: HepaRG cells; experiment: Cell viability assessment (WST-1 assay); assay type: cell-based, human; conditions: 95% CI in brackets
From the text: Undifferentiated HepaRG cells were purchased from Biopredic international (Saint Grégoire, France). HepaRG cells have unlimited growth capacity and phenotypic stability, stable enzymatic activities over 4 weeks of cultivation, and similar metabolic function to primary human hepatocytes, and also avoid limitations of primary cells such as donor variability and phenotypic instability (Aninat et al. [2006]; Guillouzo et al. [2007]; Lambert et al. [2009]; Lübberstedt et al. [2011]; Andersson et al. [2012]). The line contains two cell types, hepatocyte-like and cholangiocyte-like cells (Parent et al. [2004]), which allows for elucidation of cell-specific toxicity (Jossé et al. [2008]). Cells were seeded at a density of approximately 27′000 cells/cm^2 into a 150 × 25 mm petri dish and were cultured for 2 weeks in William’s E medium (cat. nr.: 32,551,020, ThermoFisher Scientific, Massachusetts, USA) supplemented with 2 mM glutamine, 10% (v/v) fetal bovine serum (FBS) good forte (cat. nr.: P40-47,500, PAN-Biotech, Aidenbach, Germany), 100 U/ml penicillin and 100 µg/ml streptomycin (cat. nr.: 15,140,122, ThermoFisher Scientific, Massachusetts, USA), 5 µg/ml Gibco recombinant AOF insulin (cat. nr.: A11382II, ThermoFisher Scientific, Massachusetts, USA) and 50 µM hydrocortisone hemisuccinate (cat. nr.: H4881, Sigma-Aldrich, St. Louis, USA) at 37 °C and 5% CO2. Differentiation was induced by culturing the cells for another 2 weeks in the above mentioned medium supplemented with 1.7% DMSO. After 4 weeks in culture, differentiated HepaRG cells were seeded at a high density of approximately 227′000 cells/cm^2 (72,000 cells/well with 100 µl per well) into black 96-well plates with a clear bottom (cat.nr.: 3603, Corning, New York, USA) and maintained for 10 days. After 10 days, cells were first adapted to treatment medium (culture medium containing 0.5% DMSO and 2% FBS) for 48 h and then used for cell viability and high-content imaging analysis.
Cell viability was analyzed using the WST-1 assay which is based on the measurement of mitochondrial dehydrogenase activity (cat. nr: ab155902, Abcam, Cambridge, UK). HepaRG cells were exposed to chemicals at defined concentrations for 24 h. Triton X-100 (0.01%) was a positive control. One hour before the end of incubation period, 10 µl of WST-1 reagent was added to each well, quickly mixed by shaking the plate, and returned to the cell culture incubator (37 °C, 5% CO2). After 1 h, absorbance was measured (450 nm, reference wavelength 620 nm) using a plate reader (Infinite M200 Pro, Tecan group, Männerdorf, Switzerland). Absorbance was then subtracted from the reference wavelength, corrected for background by subtracting values measured without cells, and then normalized to the solvent control, which was set to 100%. Dose–response data were fitted using drc package (Version 3.0.1) (Ritz et al. [2015]) in R 3.6.1. Data were from at least 3 independent experiments with 6 technical replicates per condition.

[2] = tested on: HepaRG cells; conditions: for Oxidative stress response (in words): population level, threshold ± 2 standard deviations of the response at the two lowest concentrations; for OS: Benchmark concentration (µM) per imaging endpoint calculated with BMDS software: oxidative stress, Supplementary table 3
[3] = tested on: HepaRG cells; experiment: High-content imaging assay: lipid accumulation (Bodipy lipid droplets); assay type: cell-based; conditions: for Lipid accumulation response (in words): population level, threshold ± 2 standard deviations of the response at the two lowest concentrations; for EC (BMC, 1 SD from control): read-out: LA: Benchmark concentration (µM) per imaging endpoint calculated with BMDS software
[4] = tested on: HepaRG cells; conditions: HepaRG 24 h; for Mitochondrial membrane potential response (in words): population level, threshold ± 2 standard deviations of the response at the two lowest concentrations
[5] = for OED (mg/kg BW/day): IVIVE derived median with 95% CI, from BMC of positive imaging endpoint, oral, daily dosing, Table 1; for OED: IVIVE derived median over all positive imaging endpoints, human simulation, Table 2
[6] = atrazine: increase relative liver weight, ref Aguilar et al. [2009], ATSDR [2003], Food and Authority [2009a], Food and Authority [2009b], cited from earlier work; for NOAEL from literature (mg/kg BW/day): first value of cell NOAEL/LOAEL; for LOAEL from literature (mg/kg BW/day): second value of cell NOAEL/LOAEL
[7] = tested on: HepaRG cells; experiment: cells; conditions: Homo sapiens, 24 h, read-out: MMP: Benchmark concentration (µM) per imaging endpoint calculated with BMDS software
[8] = tested on: HepaRG cells
[9] = cited from earlier work; for In vivo Css: human, published, ref Birkett and Miners 1991, Graham et al. 2011, Freedman and Somberg 1991, Vasudev et al. 2001
[10] = tested on: HepaRG cells; experiment: cells; conditions: Homo sapiens, 24 h, read-out: NM: Benchmark concentration (µM) per imaging endpoint calculated with BMDS software
[11] = Homo sapiens, 24 h exposure, reference chemicals, read-out: EC50 µM (95% CI) from cell viability (WST-1)
[12] = Homo sapiens, lipid accumulation, HepaRG 24 h, BMR one standard deviation from control mean, Table 1
[13] = Homo sapiens, WST-1, 24 h exposure, food-related chemicals and pesticides, read-out: EC50 (95% CI) in µM from cell viability assay

CCOC(=O)[C@@]1(CCCCCCOc2ccc(Cl)cc2)CO1 [etomoxir]
EC50 [1, 11]: 144 µM | Oxidative stress response (in words) ([2]; HepaRG 24 h): neither induced lipid accumulation, had any consistent impact on oxidative stress | Lipid accumulation response (in words) ([3]; HepaRG 24 h): neither induced lipid accumulation; also recorded: did not give rise to lipid accumulation | Concentration at which increase of MMP (hyperpolarization) was observed / exceeded the threshold [4]: 36 µM | Mitochondrial membrane potential response (in words) [4]: increased MMP

C=CC1(C)OC(=O)N(c2cc(Cl)cc(Cl)c2)C1=O (centres unmarked) [Vinclozolin]
Lipid accumulation response (in words) ([3]; HepaRG 24 h): induced significant lipid accumulation

CCNc1nc(Cl)nc(NC(C)C)n1 [Atrazine]
Lipid accumulation response (in words) ([3]; HepaRG 24 h): induced significant lipid accumulation | EC (BMC, 1 SD from control) [3, 12]: 19 µM | OED (mg/kg BW/day) [5]: 0.5 (95% CI 0.2–1.7) mg/kg BW/day | NOAEL from literature (mg/kg BW/day) [6]: 5 mg/kg BW/day

O=C([O-])C1=NN(c2ccc(S(=O)(=O)[O-])cc2)C(=O)C1N=Nc1ccc(S(=O)(=O)[O-])cc1.[Na+].[Na+].[Na+] (centres unmarked) [Tartrazine]
Lipid accumulation response (in words) ([3]; HepaRG 24 h): induced significant lipid accumulation

CNC(=O)Oc1cccc2c1OC(C)(C)C2 [Carbofuran]
EC (BMC, 1 SD from control) [7]: 4980 µM | Lipid accumulation response (in words) ([3]; HepaRG 24 h): did not stimulate lipid accumulation | Mitochondrial membrane potential response (in words) [4]: dose-dependent increase in MMP exceeding the threshold | NOAEL from literature (mg/kg BW/day) [6]: 0.03–0.1 mg/kg BW/day | LOAEL from literature (mg/kg BW/day) [6]: 0.1–0.3 mg/kg BW/day

O=S(=O)(c1ccccc1)N(CC(F)(F)F)c1ccc(C(O)(C(F)(F)F)C(F)(F)F)cc1 [T0901317]
EC50 ([1]; 24 h exposure, reference chemicals, read-out: EC50 µM (95% CI) from cell viability (WST-1)): 42.9 µM | Concentration at which increase of oxidative stress exceeded the threshold ([2]; HepaRG 24 h): 40 µM | Lipid accumulation response (in words) ([3]; HepaRG 24 h): dose-dependently increased and exceeded the threshold | Mitochondrial membrane potential response (in words) [4]: decrease in MMP below the threshold | Concentration at which increase of number of apoptotic cells (nuclear morphology) exceeded the threshold ([8]; HepaRG 24 h): 40 µM

CC1=CC[C@@H](C(C)(C)O)CC1 [Alpha-terpineol]
EC50 [1, 13]: 2560 µM

O=C(CO)[C@@H](O)[C@H](O)[C@H](O)CO [Fructose]
EC50 [1, 13]: 6.6 µM | Lipid accumulation response (in words) ([3]; HepaRG 24 h): did not stimulate lipid accumulation | Mitochondrial membrane potential response (in words) [4]: dose-dependent increase in MMP exceeding the threshold

Cc1cccc(C)c1N(Cn1cccn1)C(=O)CCl [Metazachlor]
EC50 [1, 13]: 183 µM | Lipid accumulation response (in words) ([3]; HepaRG 24 h): induced significant lipid accumulation

N#Cc1nn(-c2c(Cl)cc(C(F)(F)F)cc2Cl)c(N)c1[S+]([O-])C(F)(F)F (centres unmarked) [Fipronil]
EC50 [1, 13]: 21 µM

CC(C)(c1ccc(O)cc1)c1ccc(O)cc1 [Bisphenol A]
EC50 [1, 13]: 237 µM | Lipid accumulation response (in words) ([3]; HepaRG 24 h): induced significant lipid accumulation

C[C@H](CCC(=O)O)[C@H]1CC[C@H]2[C@@H]3CC[C@@H]4C[C@H](O)CC[C@]4(C)[C@H]3C[C@H](O)[C@]12C [Deoxycholic acid]
EC50 [1, 13]: 246 µM

C=C(C)[C@H]1Cc2c(ccc3c2O[C@@H]2COc4cc(OC)c(OC)cc4[C@@H]2C3=O)O1 [rotenone]
EC50 [1, 11]: 18.9 µM | Lipid accumulation response (in words) ([3]; HepaRG 24 h): increased in a dose-dependent manner | OED [5]: 0.3 mg/kg/day | Concentration at which decrease of mitochondrial membrane potential exceeded the threshold [4]: 2.5 µM

CCCCc1oc2ccccc2c1C(=O)c1cc(I)c(OCCN(CC)CC)c(I)c1 [amiodarone]
In vivo Css [9]: 5.4 to 6.0 µM | EC (BMC, 1 SD from control) [7]: 13.8 µM | Concentration at which increase of oxidative stress exceeded the threshold ([2]; HepaRG 24 h): 25 µM | OS: Benchmark concentration (µM) per imaging endpoint calculated with BMDS software ([2]; HepaRG 24 h): 5.35 µM | EC (BMC, 1 SD from control) ([3]; 24 h): 8.5 µM | Lipid accumulation response (in words) ([3]; HepaRG 24 h): increased in a dose-dependent manner | OED [5]: 15.8 mg/kg/day | Concentration at which decrease of mitochondrial membrane potential exceeded the threshold [4]: 25 µM | EC (BMC) [10]: 14.9 µM

N#CC(C#N)=NNc1ccc(OC(F)(F)F)cc1 [FCCP, carbonylcyanide-p-trifluoromethoxyphenylhydrazone]
Concentration at which decrease of mitochondrial membrane potential exceeded the threshold [4]: 2.5 µM

CCCCN(CCCC)SN(C)C(=O)Oc1cccc2c1OC(C)(C)C2 [Carbosulfan]
EC (BMC, 1 SD from control) [3, 12]: 77 µM | OED (mg/kg BW/day) [5]: 10.4 (95% CI 7–19.3) mg/kg BW/day | OED compared with reported NOAEL, LOAEL concentrations or the exposure estimate (in words) ([5]; human): overlapped | NOAEL from literature (mg/kg BW/day) [6]: 0.5–1.2 mg/kg BW/day | LOAEL from literature (mg/kg BW/day) [6]: 5–62 mg/kg BW/day

O=c1[nH]c(=O)c2[nH]c(=O)[nH]c2[nH]1 [Uric acid]
In vivo blood plasma conc. ([9]; ref Aguilar et al. [2009], D’Apolito et al. [2012], Li et al. [2009]): 217 to 402 µM | Lipid accumulation response (in words) ([3]; HepaRG 24 h): induced significant lipid accumulation | EC (BMC, 1 SD from control) [3, 12]: 591 µM | OED (mg/kg BW/day) [5]: 87.3 (95% CI 67.3–150.6) mg/kg BW/day

CCCC(CCC)C(=O)O [valproic acid]
In vivo Css [9]: 346.7 to 693.4 µM | EC (BMC, 1 SD from control) [7]: 1310 µM | Oxidative stress response (in words) ([2]; HepaRG 24 h): no changes were observed | OS: Benchmark concentration (µM) per imaging endpoint calculated with BMDS software ([2]; HepaRG 24 h): 1379.8 µM | Lipid accumulation response (in words) ([3]; HepaRG 24 h): accumulated in a dose-dependent manner above the threshold | EC (BMC, 1 SD from control) ([3]; Homo sapiens, lipid accumulation, HepaRG 24 h, Supplementary table 3): 570 µM | OED [5]: 92.7 mg/kg/day | Mitochondrial membrane potential response (in words) [4]: did not affect MMP | EC (BMC) [10]: 612 µM

Cn1c(=O)c2c(ncn2C)n(C)c1=O [caffeine]
EC50 [1, 11]: 6530 µM | Lipid accumulation response (in words) ([3]; HepaRG 24 h): decrease of lipid accumulation that exceeded the threshold | Concentration at which decrease of lipid accumulation exceeded the threshold ([3]; HepaRG 24 h, only at the highest concentration): 5000 µM

O=[As][O-].[Na+] [Sodium arsenite]
Concentration at which increase of oxidative stress exceeded the threshold [2]: 25 µM | Concentration at which increase of number of apoptotic cells (nuclear morphology) exceeded the threshold [8]: 25 µM
